Assay results reported in article PMC6952366 (Scientific Reports, 2020).
Values joined by “and” are separate entries in the source; they are usually repeats but may differ in a detail not shown here. Identical values can stand only once. Like-named read-outs stand apart in the source and are kept apart here.

Legend:
Shaker K+ channel = target: T1, Shaker K+ channel (Drosophila melanogaster, UniProt P08510, DEL6-46); test: cell-based; format: cell-based, D. melanogaster; details: for δ (fractional distance through the membrane electrical field): Woodhull fit of IC50 vs voltage curves
T1 construct: expressed in transfected cells; host or cells: Xenopus laevis oocytes injected with in vitro transcribed cRNA (cDNA clone from the Bezanilla laboratory)
Method: K^+ currents were measured in Xenopus oocytes expressing the commonly studied voltage-gated K^+ channel Shaker from D. melanogaster. In order to determine the relative blocking capacity, each drug was applied to the same oocyte at increasing concentrations ranging from 1 to 10,000 μM. Then, the relative current was determined as the ratio between the maximal amplitude of the K^+ current in the absence and in the presence of each drug. […] The Hill equation (Eq. 1) was fitted to the dose-response curves and used to calculate the IC50 for each drug at pH 7.4.
A sample of cDNA clone encoding for Shaker voltage-gated K^+ channel from D. melanogaster with inactivation removed[51] was generously provided by the laboratory of Prof. Francisco Bezanilla at The University of Chicago. The DNA was amplified, linearized with Not I enzyme (New England Biolabs, Inc., Ipswich, MA, USA) and transcribed in vitro using the T7 promoter mMESSAGE cRNA kit (Ambion, Austin, Tex., USA).
Shaker channel was heterologously expressed in Xenopus laevis oocytes. Only mature Xenopus laevis frogs (Aquanimals SA de CV, Queretaro, Mexico) were used as oocytes suppliers. A volume of 1−3 mL from the ovary lobes was extracted via survival surgery under anesthesia. All methods involving live animals were performed in accordance with relevant guidelines and regulations and with the approval of the Comité Institucional del Cuidado y Uso de Animales en el Laboratorio (CICUAL-CUCEI-UDG). Subsequently, oocytes were isolated with the treatment of collagenase type II (Worthington Biochemical Corp., NJ, USA) under mechanical agitation. After the isolation with collagenase, each oocyte was injected with 15–25 ng of RNA encoding for the Shaker ion channel and incubated for 8–12 h at 17 °C in a Standard Oocytes Saline (SOS) solution containing (in mM): 100 NaCl, 1 MgCl2, 10 HEPES, 2 KCl and 1.8 CaCl2 with 50 μg/mL gentamycin at pH 7.5.
All chemical compounds for this study were acquired from Sigma-Aldrich (Sigma-Aldrich Co., St. Louis, MO, USA) and Chem-Impex International (Chem-Impex International, Inc. Wood Dael, IL, USA) unless otherwise indicated. Electrophysiology measurements were conducted using the methodology of cut-open oocyte voltage clamp (COVC)[52]. For COVC procedures, the internal recording solution contained (in mM): 120 KOH, 2 EGTA, and 20 HEPES. The external recording solution was composed (in mM) by: 12 KOH, 2 Ca(OH)2, 105 NMDG (N-methyl-D-glucamine)-methylsufonate (MES), and 20 mM HEPES. For measurements carried out at pH of 6.8 and 7.4, the pH of both solutions was adjusted with MES. For measurements carried out at pH = 9.1, HEPES was replaced by 2-(cyclohexylamino)ethanesulfonic acid (CHES).
K^+ currents were recorded in the same oocyte, first in absence (IK) and then in presence of each drug (II). IK was elicited by depolarizing the oocyte membrane with a voltage protocol that consisted in steps of 50 ms from −100 to 50 mV in increments of 10 mV. […] The integrity and stability of each oocyte were continuously monitored throughout the experiment.
Ionic currents were amplified and digitized with the Oocyte Clamp Amplifier CA-1A (Dagan Corporation, Minneapolis, MN, USA) and the USB-1604-HS-2AO Multifunction Card (Measurement Computing, Norton, MA, USA), respectively, and controlled with the GpatchMC64 program (Department of Anesthesiology, UCLA, Los Angeles, CA, USA) via a PC. Data were sampled at 100 kHz and filtered at 10 kHz. All the experiments were performed at room temperature (21–23 °C).
Ion currents recordings were analyzed with Analysis (Department of Anesthesiology, UCLA, Los Angeles, CA, USA) and OriginPro 8 (OriginLab Corporation, Northampton, MA, USA.) programs.
Mean values of data ± standard deviation (s.d.) are given or plotted and the number of experiments is denoted by n. The 95% of confidence interval (IC95) is denoted as [Upper limit-Lower limit]; where Upper limit = 10^(logIC50+s.d) and Lower limit = 10^(logIC50−s.d) .

[1] = Octanol-water partition coefficient (logD) at pH 7.4, modified shake flask method; format: physicochemical; details: pH 7.4, 4 replicates
Method: The octanol-water partition coefficient (logD) at pH 7.4 was determined using a modified version of the shake flask method. Briefly, PBS (900 µL), 1-octanol (900 µL) and a 10 mg/mL aqueous solution of each compound (2 µL) were added to a 2 mL HPLC vial. The compounds were partitioned between the layers via vortexing and centrifuged at 1,000 g for 1 min to allow for phase separation. A portion (10 µL) was taken from each layer (autoinjector was set up to draw volume at two different heights) and analyzed by HPLC. The relative concentration in each phase was determined by integrating the area under each peak and comparing the ratio of the areas from the octanol and aqueous layers. A calibration curve was performed to ensure that the concentrations detected were within the linear range of the detector. This procedure was repeated 4 times for each compound.

[2] = pKa determination by acid titration; format: physicochemical; details: acid titration in water, Gran plot, 4 replicates
Method: The pKa of each compound was measured by acid titration. […] This procedure was repeated 4 times for each compound.

[3] = cited from earlier work
[4] = 0 mV, pH 6.8, Hill fit, read-out: IC50
[5] = 0 mV, pH 7.4, Hill fit, read-out: IC50
[6] = 0 mV, pH 9.1, Hill fit, read-out: IC50
[7] = 40 mV, pH 7.4, Hill equation fit, read-out: IC50
[8] = 1-octanol/PBS, pH 7.4, octanol/water (PBS), read-out: logD
[9] = IC50, 40 mV, pH 7.4, Hill equation fit
[10] = IC50 at V = 0 mV (Woodhull parameter), fit of IC50 vs voltage curves (10 to 50 mV) with Woodhull model, mean ± SD
[11] = IC50 increase with voltage (from lowest to highest voltage), over the voltage values studied, Fig. 4 shows 10 to 50 mV
[12] = fit of IC50 vs voltage curves (10 to 50 mV) with Woodhull model, mean ± SD, read-out: IC50 at V = 0 mV (Woodhull parameter)
[13] = over the voltage values studied, Fig. 4 shows 10 to 50 mV, read-out: IC50 increase with voltage (from lowest to highest voltage)

T1 sequence (P08510 other isoform, or with tags, fused parts or gaps DEL6-46): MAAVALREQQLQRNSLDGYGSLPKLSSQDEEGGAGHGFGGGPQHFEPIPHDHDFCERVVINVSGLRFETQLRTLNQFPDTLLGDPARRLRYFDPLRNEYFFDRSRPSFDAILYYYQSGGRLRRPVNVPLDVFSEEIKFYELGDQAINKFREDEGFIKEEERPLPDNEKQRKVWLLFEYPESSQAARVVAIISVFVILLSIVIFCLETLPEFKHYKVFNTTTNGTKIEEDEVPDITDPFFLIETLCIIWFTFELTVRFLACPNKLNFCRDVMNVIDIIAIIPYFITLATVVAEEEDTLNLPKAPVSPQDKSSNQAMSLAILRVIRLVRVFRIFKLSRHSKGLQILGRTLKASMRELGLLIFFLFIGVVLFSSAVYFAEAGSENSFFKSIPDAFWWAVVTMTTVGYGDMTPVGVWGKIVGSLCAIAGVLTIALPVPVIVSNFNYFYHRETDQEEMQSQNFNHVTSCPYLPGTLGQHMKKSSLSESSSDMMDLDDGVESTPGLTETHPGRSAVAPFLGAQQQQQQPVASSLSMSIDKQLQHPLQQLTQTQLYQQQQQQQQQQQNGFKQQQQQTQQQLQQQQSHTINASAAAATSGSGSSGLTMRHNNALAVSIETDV

Row | Structure (SMILES) | IC50 (Shaker K+ channel; [4]) | IC50 (Shaker K+ channel; [5]) | IC50 (Shaker K+ channel; [6]) | IC50 (Shaker K+ channel; [7]) | blocking of the channel (Shaker K+ channel; at 10 mM, pH 7.4, 40 mV) | logD [1, 8] | logD ([1]; octanol/water (PBS)) | pKa [2] | pKa ([2]; water, read-out: pKa) | IC50 (Shaker K+ channel; IC50, 0 mV, pH 6.8, Hill fit) | IC50 (Shaker K+ channel; IC50, 0 mV, pH 7.4, Hill fit) | IC50 (Shaker K+ channel; IC50, 0 mV, pH 9.1, Hill fit) | IC50 (Shaker K+ channel; [9]) | IC50 (Shaker K+ channel; [10]) | IC50 (Shaker K+ channel; [11]) | δ (fractional distance through the membrane electrical field) (Shaker K+ channel) | IC50 (Shaker K+ channel; [12]) | IC50 (Shaker K+ channel; [13]) | potency relative to 4AP (Shaker K+ channel; pH 7.4, 40 mV) | pKa [3]
1 | Nc1ccnc(C(F)(F)F)c1 [2CF34AP, 2-trifluoromethyl-4-aminopyridine] | 10400 µM | 11900 µM | 18200 µM | 12800 µM | ~ 50% | 1.48 | 0.906 ± 0.006 | 7.0 ± 0.4 | < 8 | – | – | – | – | – | – | – | – | – | – | –
2 | Nc1ccncc1C(F)(F)F [3CF34AP, 3-trifluoromethyl-4-aminopyridine] | – | – | – | – | – | 0.91 | 1.484 ± 0.009 | 7.17 ± 0.04 | < 8 | 249 µM | 690 µM | 2190 µM | 1060 µM | 516 ± 51 µM | 690 to 1150 µM | 0.46 ± 0.10 | – | – | – | –
3 | Nc1ccncc1F [3F4AP, 3-fluoro-4-aminopyridine, reference compound] | 82 µM | 160 µM | 185 µM | 244 µM | – | 0.41 | 0.414 ± 0.002 | 7.65 ± 0.15 | < 8 | – | – | – | – | – | – | 0.46 ± 0.10 | 122 ± 4 µM | 160 to 304 µM | comparable to 4AP | 7.6
4 | Cc1cnccc1N [3Me4AP, 3-methyl-4-aminopyridine] | – | – | – | – | – | – | −1.23 and −1.232 ± 0.008 | 9.82 ± 0.06 | > 9 | 66 µM | 39 µM | 15 µM | 40 µM | 21 ± 1 µM | 37 to 50 µM | 0.43 ± 0.10 | – | – | – | –
5 | COc1cnccc1N [3MeO4AP, 3-methoxy-4-aminopyridine] | 357 µM | 355 µM | 492 µM | 807 µM | – | -0.76 ± 0.03 | – | 9.18 ± 0.02 | > 9 | – | – | – | – | – | – | 0.56 ± 0.02 | 329 ± 17 µM | 310 to 992 µM | – | –
6 | Nc1ccncc1 [4AP, 4-aminopyridine, reference compound] | – | – | – | – | – | – | −1.48 and −1.478 ± 0.014 | 9.58 ± 0.07 | > 9 | – | – | – | – | – | – | 0.41 ± 0.08 | – | – | – | –
